In ChEMBL document CHEMBL5537117, “Novel 3-hydroxypyridin-4(1H)-One derivatives as ferroptosis inhibitors with iron-chelating and reactive oxygen species scavenging activities and therapeutic effect in cisplatin-induced cytotoxicity” (Eur J Med Chem, 2024):
Activity calls are given as the source filed them. No cut-off for these calls is given here.

Columns and labels:
[1] = Antioxidant activity assessed as ABTS radical scavenging activity incubated in dark for 6 mins by absorbance based microplate reader analysis; type: functional
[2] = Antioxidant activity assessed as trolox equivalent of ORAC radical scavenging activity at 8 uM; type: functional
[3] = Antioxidant activity assessed as trolox equivalent of ORAC radical scavenging activity at 4 uM; type: functional
HT-22 [4] = assay: Anti-ferroptotic activity against Erastin-induced ferroptosis in mouse HT-22 cells assessed as reduction in ROS accumulation at 100 uM measured after 24 hrs by DCFH-DA based flow cytometry analysis relative to control; type: functional; parameters: scale not given: the % may be the effect or the level left
[5] = Acid dissociation constant, pKa1 of the compound in 0.1M KCl at pH 2.0 to 10.5 by UV absorption method; type: physicochemical
[6] = Acid dissociation constant, pKa2 of the compound in 0.1M KCl at pH 2.0 to 10.5 by UV absorption method; type: physicochemical
[7] = Acid dissociation constant, pKa3 of the compound in 0.1M KCl at pH 2.0 to 10.5 by UV absorption method; type: physicochemical
[8] = Metal chelating activity assessed as Fe3+ chelation
[9] = Log K1 of the compound in 0.1M KCl at pH 0.9 to 2.1 by UV absorption method; type: physicochemical
[10] = Log K2 of the compound in 0.1M KCl at pH 2.0 to 10.5 by UV absorption method; type: physicochemical
[11] = Log K3 of the compound in 0.1M KCl at pH 2.0 to 10.5 by UV absorption method; type: physicochemical
HT-22 [12] = assay: Cytotoxicity against mouse HT-22 cells assessed as reduction in cell viability at 150 uM by MTT assay relative to control; type: toxicity, cell-based; conditions: ht-22, 150 µM
L02 = assay: Cytotoxicity against human L02 cells assessed as reduction in cell viability at upto 100 uM by MTT assay; type: toxicity, cell-based; conditions: l02, 100 µM
HT-22 [13] = assay: Anti-ferroptotic activity in erastin-induced ferroptosis in mouse HT-22 cells assessed as cell viability incubated for 24 hrs by MTT assay; type: functional, cell-based; conditions: HT-22, 24 h
HEK-293T [14] = assay: Protection against cisplatin-induced cytotoxicity in HEK293T cells assessed as cell viability measured after 24 to 48 hrs by MTT assay; type: functional, cell-based; conditions: Homo sapiens
HEK-293T [15] = assay: Protection against cisplatin-induced cytotoxicity in HEK293T cells assessed as reduction in attenuation of intracellular Fe2+ at 30 to 80 uM measured after 24 hrs by FeRhoNox-1 based flow cytometry analysis; type: functional, cell-based; conditions: Homo sapiens, dose 30-80 µM
HT-22 [16] = assay: Anti-ferroptotic activity against Erastin-induced ferroptosis in mouse HT-22 cells assessed as reduction in LIP level by measuring fluorescence intensity measured after 24 hrs by FeRhoNox-1 based flow cytometry analysis; type: functional, cell-based; conditions: dose 20-100 µM
HT-22 [17] = assay: Anti-ferroptotic activity against Erastin-induced ferroptosis in mouse HT-22 cells assessed as inhibition of LPO accumulation at 0.2 uM measured after 24 hrs by BODIPY-C11 based flow cytometry analysis relative to control; type: functional; parameters: scale not given: the % may be the effect or the level left
[18] = AUC (0 to infinity) in rat at 5 mg/kg, iv measured upto 24 hrs by UPLC-MS analysis; type: ADME, organism-based; conditions: in vivo
HT-22 [19] = assay: Anti-ferroptotic activity against Erastin-induced ferroptosis in mouse HT-22 cells assessed as reduction in ROS accumulation measured after 24 hrs by DCFH-DA based flow cytometry analysis; type: functional, cell-based; conditions: dose 20-100 µM
HT-22 [20] = assay: Anti-ferroptotic activity against Erastin-induced ferroptosis in mouse HT-22 cells assessed as reduction in LPO accumulation measured after 24 hrs by BODIPY-C11 based flow cytometry analysis; type: functional, cell-based; conditions: dose 20-100 µM
HEK-293T [21] = assay: Protection against cisplatin-induced cytotoxicity in HEK293T cells assessed as reduction in ROS accumulation at 50 uM measured after 24 hrs by DCFH-DA based flow cytometry analysis; type: functional, cell-based; conditions: Homo sapiens
HEK-293T [22] = assay: Protection against cisplatin-induced cytotoxicity in HEK293T cells assessed as reduction in LPO accumulation at 50 uM measured after 24 hrs by BODIPY-C11 based flow cytometry analysis; type: functional, cell-based; conditions: Homo sapiens
[23] = AUC (0 to t) in rat at 5 mg/kg, iv measured upto 24 hrs by UPLC-MS analysis; type: ADME, organism-based; conditions: in vivo
[24] = AUC (0 to t) in rat at 15 mg/kg, IG measured upto 24 hrs by UPLC-MS analysis; type: ADME, organism-based; conditions: in vivo, po
[25] = AUC (0 to infinity) in rat at 15 mg/kg, IG measured upto 24 hrs by UPLC-MS analysis; type: ADME, organism-based; conditions: in vivo, po
[26] = MRT (0 to infinity) in rat at 5 mg/kg, iv measured upto 24 hrs by UPLC-MS analysis; type: ADME, organism-based; conditions: in vivo
[27] = MRT (0 to infinity) in rat at 15 mg/kg, IG measured upto 24 hrs by UPLC-MS analysis; type: ADME, organism-based; conditions: in vivo, po
[28] = Half life in rat at 5 mg/kg, iv measured upto 24 hrs by UPLC-MS analysis; type: ADME, organism-based; conditions: in vivo
[29] = Half life in rat at 15 mg/kg, IG measured upto 24 hrs by UPLC-MS analysis; type: ADME, organism-based; conditions: in vivo, po
[30] = Clearance in rat at 5 mg/kg, iv measured upto 24 hrs by UPLC-MS analysis; type: ADME, organism-based; conditions: in vivo
[31] = Clearance in rat at 15 mg/kg, IG measured upto 24 hrs by UPLC-MS analysis; type: ADME, organism-based; conditions: in vivo, po
[32] = Volume of distribution at steady state in rat at 5 mg/kg, iv measured upto 24 hrs by UPLC-MS analysis; type: ADME, organism-based; conditions: in vivo, read-out: Vdss
[33] = Volume of distribution at steady state in rat at 15 mg/kg, IG measured upto 24 hrs by UPLC-MS analysis; type: ADME, organism-based; conditions: in vivo, po
[34] = Cmax in rat at 5 mg/kg, iv measured upto 24 hrs by UPLC-MS analysis; type: ADME, organism-based; conditions: in vivo
[35] = Cmax in rat at 15 mg/kg, IG measured upto 24 hrs by UPLC-MS analysis; type: ADME, organism-based; conditions: in vivo, po
[36] = Tmax in rat at 5 mg/kg, iv measured upto 24 hrs by UPLC-MS analysis; type: ADME, organism-based; conditions: in vivo
[37] = Tmax in rat at 15 mg/kg, IG measured upto 24 hrs by UPLC-MS analysis; type: ADME, organism-based; conditions: in vivo, po
[38] = Oral bioavailability in rat at 15 mg/kg, IG measured upto 24 hrs by UPLC-MS analysis; type: ADME, organism-based; conditions: in vivo

Cc1c(O)c(=O)ccn1NC(=O)/C=C/c1cccc(Cl)c1
IC50 [1]: 4.9 µM
Activity [2]: 6.52
Activity [3]: 3.27
Activity (HT-22 [4]): 100%
pKa [5]: 2.52
pKa [6]: 6.66
pKa [7]: 10.1
Activity [8]: 17.8
log(activity) [9]: 14.03
log(activity) [10]: 26.16
log(activity) [11]: 35.28

Cc1c(O)c(=O)ccn1C [DEFERIPRONE]
IC50 [1]: 9.7 µM
Activity [2]: 9.19
Activity [3]: 4.73
Activity (HT-22 [12]): > 80%
Activity (L02): Non-Toxic
EC50 (HT-22 [13]): 165 µM
EC50 (HEK-293T [14]): 40 µM
Activity (HEK-293T [15]): Active
pKa [6]: 9.93
Activity [8]: 17.9
log(activity) [9]: 14.12
log(activity) [10]: 25.8
log(activity) [11]: 34.97

CCOC(=O)c1ccc(NC2CCCCC2)c(N)c1
IC50 [1]: 6.27 µM
Activity [2]: 9.43
Activity [3]: 6.53
EC50 (HT-22 [13]): 0.191 µM
Activity (HT-22 [16]): inactive
Activity (HT-22 [17]): 100%
EC50 (HEK-293T [14]): 5.69 µM

COc1ccc(/C=C/C(=O)Nn2ccc(=O)c(O)c2C)cc1OC
IC50 [1]: 4.9 µM
Activity [2]: 21.1
Activity [3]: 15.7
Activity (HT-22 [12]): > 80%
EC50 (HT-22 [13]): 33.5 µM
pKa [5]: 2.29
pKa [6]: 7.33
pKa [7]: 10.2
Activity [8]: 17.3
log(activity) [9]: 13.89
log(activity) [10]: 25.87
log(activity) [11]: 35.17

Cc1c(O)c(=O)ccn1NC(=O)/C=C/c1cccc(F)c1
IC50 [1]: 4.35 µM
AUC [18]: 365.99 ng·h/mL
Activity [2]: 36
Activity [3]: 23.8
Activity (HT-22 [12]): > 80%
EC50 (HT-22 [13]): 14.9 µM
Activity (HT-22 [16]): Dose-Dependent Effect
Activity (HT-22 [19]): Dose-Dependent Effect
Activity (HT-22 [20]): Dose-Dependent Effect
EC50 (HEK-293T [14]): 24.9 µM
Activity (HEK-293T [15]): Active
Activity (HEK-293T [21]): Active
Activity (HEK-293T [22]): Active
AUC(0-t) at 24 h [23]: 364 ng·h/mL
AUC(0-t) at 24 h [24]: 120 ng·h/mL
AUC [25]: 136.25 ng·h/mL
MRT inf [26]: 2.34 h
MRT inf [27]: 8.22 h
half-life [28]: 224 min
half-life [29]: 350 min
CL [30]: 0.02 L/h/kg
CL [31]: 0.14 L/h/kg
Vd [32]: 0.07 L/kg
Vdss [33]: 1.42 L/kg
Cmax [34]: 472 ng/mL
Cmax [35]: 24.1 ng/mL
Tmax [36]: 8.4 min
Tmax [37]: 11.4 min
bioavailability [38]: 8.06%
pKa [5]: 2.32
pKa [6]: 6.78
pKa [7]: 10.1
Activity [8]: 18.6
log(activity) [9]: 14.67
log(activity) [10]: 26.56
log(activity) [11]: 36.22
